Reference: patent US5849779A, “Pyrazole derivatives and their pharmaceutical use” (Japan Energy Corporation, priority 1996, dated 1998)

What was measured:
BALB/c 3T3 cells = assay: Inhibiting effect on PDGF-stimulated cell growth (3H-thymidine uptake); assay type: cell-based; conditions: Mus musculus, BALB/c3T3, PDGF-AA or PDGF-BB 10 ng/mL, 16 h; for inhibition at 3 µM: concentration 3 μM
Method: Effect on PDGF-stimulated cell growth was estimated by the following method using fibroblasts, growth of which is induced by PDGF in the same manner of smooth muscle cells to verify inhibitory activity of the pyrazole derivative of the present invention against PDGF-stimulated cell growth.
BALB/c 3T3 cells seeded on a 96-well plate (3-5×10^3 cell/well) were incubated in a high glucose Dulbecco's modified Eagle's medium (DME medium) containing 10% fetal bovine sera (FBS) for 2-3 days until confluent. The medium was replaced by high glucose DME medium containing 0.5% platelet poor plasma (PPP) followed by incubation for further 24 h.
The medium was replaced by high glucose DME medium containing PDGF-AA or PDGF-BB (10 ng/mL) to induce PDGF-stimulated cell growth, and a DMSO solution of a test sample was added followed by incubation for 16 h. Then, ^3 H-thymidine (1 mCi/ml) was 20-fold diluted by Ca^2+ and Mg^2+ free phosphate-bufferized saline, and 0.02 mL of the resulted solution was added followed by incubation for further 4 h. Final concentration of DMSO was not more than 0.25%.
After ^3 H-thymidine in the medium was washed out, cells were treated with trypsin/EDTA and collected using a cell-harvester. Amount of ^3 H-thymidine taken in the cells was measured by a liquid scintillation counter. […] Growth inhibition was estimated by difference of the amount of ^3 H-thymidine taken between the test incubation and the reference incubation.

[1] = test system: Human coronary artery smooth muscle cells; assay: Inhibiting effect on PDGF-stimulated smooth muscle cell growth (3H-thymidine method); assay type: cell-based; conditions: PDGF-BB 20 ng/mL, 16 h
Method: Effect on PDGF-stimulated smooth muscle cell growth was estimated by the following method to verify inhibitory activity of the pyrazole derivative of the present invention against smooth muscle cell growth. (Test method)
Human coronary artery smooth muscle cells seeded on a 96-well plate (2×10^4 cell/well) were incubated in a complete medium consisting of a basal medium (SmGM-2: Iwaki Glass Co., Japan), FBS (5%), EGF (0.5 ng/mL), insulin (0.005 mg/mL), and basic-FGF (2 ng/mL) for 24 h until confluent. The medium was replaced by the basal medium followed by incubation for further 24 h to lead cells to GO stage.
The medium was replaced by a medium consisting of the basal medium and PDGF-BB (20 ng/mL) to induce PDGF-stimulated cell growth, and a DMSO solution of a test sample was added followed by incubation for 16 h. Then, inhibition of cell growth was estimated by a ^3 H-thymidine method as described in Example 22.
Tranilast was used as positive reference.

smooth muscle cell [2] = conditions: Atherosclerosis, 107, 179-185 (1994); cited from earlier work
re-narrowing = conditions: Rinsho Iyaku, 12, 65-85 (1996); cited from earlier work
smooth muscle cell [3] = conditions: as reported in literature; cited from earlier work
hepatic function = conditions: clinical use; cited from earlier work

| SMILES | inhibition at 3 µM (BALB/c 3T3 cells) [%] | IC50 [1] [µM] | other results |
| --- | --- | --- | --- |
| CCCNC(=O)Nc1nn(Cc2ccccc2)cc1C(=O)OCC [Example 1, N-propyl-N'-(1-benzyl-4-ethoxycarbonylpyrazol-3-yl)urea] | 84.5 | 2.3 |  |
| CCCCn1cc(C(=O)OCC)c(NC(=O)Nc2ccccc2)n1 [Example 2, N-phenyl-N'-(1-butyl-4-ethoxycarbonylpyrazol-3-yl)urea] | 81.9 | 3.1 |  |
| CCCCn1cc(C(=O)OCC)c(NC(=S)Nc2ccccc2)n1 [Example 3, N-phenyl-N'-(1-butyl-4-ethoxycarbonylpyrazol-3-yl)thiourea] | 89.5 | 1.5 |  |
| CCOC(=O)c1cnn(-c2ccccc2)c1NC(=O)Nc1ccccc1 [Example 6, N-phenyl-N'-(4-ethoxycarbonyl-1-phenylpyrazol-5-yl)urea] | 49.9 |  |  |
| CCCNC(=O)Nc1c(C(=O)OCC)cnn1-c1ccccc1 [Example 7, N-propyl-N'-(4-ethoxycarbonyl-1-phenylpyrazol-5-yl)urea] | 36.4 |  |  |
| CCOC(=O)c1cn(Cc2ccccc2)nc1NC(=O)NC(C)C [Example 8, N-isopropyl-N'-(1-benzyl-4-ethoxycarbonylpyrazol-3-yl)urea] |  | 1.3 |  |
| CCCN(CCC)C(=O)Nc1nn(Cc2ccccc2)cc1C(=O)OCC [Example 15, N, N-dipropyl-N'-(1-benzyl-4-ethoxycarbonylpyrazol-3-yl)urea] |  | 2.2 |  |
| CCOC(=O)c1cn(Cc2ccccc2)nc1NC(=O)N(c1ccccc1)c1ccccc1 [Example 16, N, N-diphenyl-N'-(1-benzyl-4-ethoxycarbonylpyrazol-3-yl)urea] |  | 1.1 |  |
| CCOC(=O)c1cn(Cc2ccccc2)nc1N(Cc1ccccc1)C(=O)Nc1ccccc1 [Example 18, N-phenyl-N'-benzyl-N'-(1-benzyl-4-ethoxycarbonylpyrazol-3-yl)urea] |  | 3 |  |
| COc1ccc(/C=C/C(=O)Nc2ccccc2C(=O)O)cc1OC [tranilast, N-(3,4-dimethoxycinnamoyl) anthranilic acid, reference compound] |  | 5 | inhibition at 10 µM (BALB/c 3T3 cells; concentration 10 μM): 19.2%; inhibition at 30 µM (BALB/c 3T3 cells; concentration 30 μM): 57.1%; inhibition at 100 µM (BALB/c 3T3 cells; concentration 100 μM): 92.5%; inhibition of growth of smooth muscle cell (smooth muscle cell [2]): inhibit growth of smooth muscle cell; prevention of clinical re-narrowing after percutaneous transluminal angioplasty (re-narrowing): prevent clinical re-narrowing after percutaneous transluminal angioplasty; inhibition of PDGF-stimulated smooth muscle cell growth (smooth muscle cell [3]): reported to inhibit PDGF-stimulated smooth muscle cell growth; side effects on hepatic function (hepatic function): often causes side effects on hepatic function |
